From BindingDB's records for doi:10.3109/14756366.2010.550890 (Jamia Hamdard University, 2011)

What was measured:
[1] = biological target: T1, Prostaglandin G/H synthase 1 (Ovis aries, UniProt P05979); assay: COX Inhibition Assay; conditions: pH 8; 37 °C
T1 sequence (P05979 whole entry): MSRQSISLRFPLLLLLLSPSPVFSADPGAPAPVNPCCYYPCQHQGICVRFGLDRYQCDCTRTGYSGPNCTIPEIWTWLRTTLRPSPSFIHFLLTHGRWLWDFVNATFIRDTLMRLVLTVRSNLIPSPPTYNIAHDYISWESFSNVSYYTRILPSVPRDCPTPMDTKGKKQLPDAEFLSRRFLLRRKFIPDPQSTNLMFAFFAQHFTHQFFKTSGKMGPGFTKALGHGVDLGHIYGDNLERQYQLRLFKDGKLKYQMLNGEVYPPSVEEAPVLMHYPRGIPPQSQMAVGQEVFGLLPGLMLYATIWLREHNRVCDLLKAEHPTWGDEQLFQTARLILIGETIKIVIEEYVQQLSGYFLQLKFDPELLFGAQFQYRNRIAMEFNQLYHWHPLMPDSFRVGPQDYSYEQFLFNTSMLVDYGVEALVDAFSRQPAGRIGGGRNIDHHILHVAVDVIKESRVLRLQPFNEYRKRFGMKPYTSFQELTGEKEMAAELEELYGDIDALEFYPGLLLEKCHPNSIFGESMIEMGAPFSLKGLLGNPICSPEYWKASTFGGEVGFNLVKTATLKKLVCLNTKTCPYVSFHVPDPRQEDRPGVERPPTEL
Description: (§1) Stock solutions of test compounds were dissolved in a minimum volume of dimethyl sulphoxide (DMSO) toobtain 0.001, 0.01, 0.1, 1, 10, 100, and 500 μM in a final volume of 1 mL. In brief, haematin reconstituted purified COX-1 and COX-2 enzymes in a reaction buffer containing Tris-hydrochloric acid (HCl) (0.1 M, pH 8.0), 5 mM ethylenediaminetetraacetic acid (EDTA), and 2 mM phenol were pre-incubated at room temperature for 1 h with test compounds followed by the addition of AA (100 μM)for 2 min at 37°C. Reactions were terminated by adding 50 μL of 1 M HCl followed by the addition of 100 μL of stannous chloride.

[2] = biological target: T2, Prostaglandin G/H synthase 2 (Ovis aries, UniProt P79208); assay: COX Inhibition Assay; conditions: pH 8; 37 °C
T2 sequence (P79208 whole entry): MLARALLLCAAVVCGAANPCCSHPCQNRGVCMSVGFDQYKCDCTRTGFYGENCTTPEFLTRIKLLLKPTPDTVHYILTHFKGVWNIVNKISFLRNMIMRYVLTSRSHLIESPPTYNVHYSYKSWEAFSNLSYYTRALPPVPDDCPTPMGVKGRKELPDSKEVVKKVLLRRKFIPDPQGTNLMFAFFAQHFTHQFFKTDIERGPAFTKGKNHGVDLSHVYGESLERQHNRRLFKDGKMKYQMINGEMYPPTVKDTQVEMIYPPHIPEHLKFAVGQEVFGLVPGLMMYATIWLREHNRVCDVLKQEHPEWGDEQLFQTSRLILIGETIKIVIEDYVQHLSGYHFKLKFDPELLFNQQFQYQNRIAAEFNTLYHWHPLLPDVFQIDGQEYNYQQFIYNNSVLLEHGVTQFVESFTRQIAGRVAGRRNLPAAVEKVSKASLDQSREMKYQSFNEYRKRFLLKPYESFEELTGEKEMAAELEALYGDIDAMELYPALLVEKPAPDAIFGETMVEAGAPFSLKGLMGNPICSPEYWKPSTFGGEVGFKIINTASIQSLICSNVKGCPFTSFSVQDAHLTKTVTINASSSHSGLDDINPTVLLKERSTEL
Description: as §1

O=c1oc2ccccc2cc1-c1nnc(-c2ccc(Cl)cc2)o1 [3-[5-(4-Chloro-phenyl)-[1,3,4]oxadiazol-2-yl]-chromen-2-one (4b)]
IC50 [1]: 35 µM | IC50 [2]: 1.2 µM

O=c1oc2ccccc2cc1-c1nnc(-c2ccccc2)o1 [3-(5-Phenyl-[1,3,4]oxadiazol-2-yl)-chromen-2-one (4a)]
IC50 [1]: < 100 µM | IC50 [2]: 8.7 µM

Cc1ccc(-c2nnc(-c3cc4ccccc4oc3=O)o2)cc1 [3-(5-p-Tolyl-[1,3,4]oxadiazol-2-yl)-chromen-2-one (4c)]
IC50 [1]: > 100 µM | IC50 [2]: 1.18 µM

O=c1oc2ccccc2cc1-c1nnc(Nc2ccc(Cl)cc2)o1 [3-[5-(4-Chloro-phenylamino)-[1,3,4]oxadiazol-2-yl]-chromen-2-one (6b)]
IC50 [1]: > 100 µM | IC50 [2]: > 100 µM

O=C(Nc1nnc(-c2cc3ccccc3oc2=O)o1)c1ccc(Cl)cc1 [4-Chloro-N-[5-(2-oxo-2H-chromen-3-yl)-[1,3,4]oxadiazol-2-yl]-benzamide (8b)]
IC50 [1]: > 100 µM | IC50 [2]: > 100 µM

O=c1oc2ccccc2cc1-c1nnc(-c2ccc(Cl)cc2Cl)o1 [3-[5-(2,4-Dichloro-phenyl)-[1,3,4]oxadiazol-2-yl]-chromen-2-one (4e)]
IC50 [1]: 41.6 µM | IC50 [2]: 0.4 µM

Cc1ccccc1Nc1nnc(-c2cc3ccccc3oc2=O)o1 [3-(5-o-Tolylamino-[1,3,4]oxadiazol-2-yl)-chromen-2-one (6e)]
IC50 [1]: > 100 µM | IC50 [2]: 36.6 µM
